Measured values published in US5140014A (Abbott Laboratories, priority 1989, dated 1992).
≈ marks a conversion by molar mass, not a printed value. Like-named read-outs stand apart in the source and are kept apart here.

Experiments:
Assay in all cases: in vitro antibacterial activity, agar dilution method (MIC)
Assay type in all cases: cell-based
[1] = system: Pseudomonas Cepacia; conditions: strain 296I, BHI agar, 20-24 hours
Experimental: (§1) Compounds 1 to 8 were evaluated for antibacterial activity by the agar dilution method to determine the degree of in vitro susceptibility of aerobic microorganisms to antimicrobial agents. The test medium was Brain Heart Infusion (BHI) agar. The antibacterial agent was dissolved at a concentration of 2,000 ug/mL. Test plates were then prepared, usually 12 two-fold dilutions. After adding the sample to the plates, 10 mL of cooled BHI agar medium was added to each plate. The organisms were grown overnight in BHI broth (Difco) in a 35°-37° C. incubator.
(§2) On the day of testing, the bacterial suspensions were diluted 1:100 in sterile distilled water, except for a few slow-growing organisms (usually Micrococcus and Streptococcus) which were diluted 1:10. The plate was then inoculated with approximately 10^4 organisms. This was incubated in a 35°-37° C. incubator for 20-24 hours. Thereafter, the plates were read to determine the minimum inhibitory concentration (MIC) defined as the lowest concentration of drug yielding no growth on the plate, a slight haze, or sparsely isolated colonies on the inoculum spot as compared to the growth control.

[2] = system: Escherichia Coli; conditions: BHI agar, 20-24 hours
Experimental: as §1, §2

[3] = system: Acinetobacter Sp; conditions: strain CMX 669, BHI agar, 20-24 hours
Experimental: (§3) The test medium was Brain Heart Infusion (BHI) agar. The antibacterial agent was dissolved at a concentration of 2,000 ug/mL. Test plates were then prepared, usually 12 two-fold dilutions. After adding the sample to the plates, 10 mL of cooled BHI agar medium was added to each plate. The organisms were grown overnight in BHI broth (Difco) in a 35°-37° C. incubator.
as §2

[4] = system: Staphylococcus Epidermidis; conditions: strain 3519, BHI agar, 20-24 hours
Experimental: as §3, §2

[5] = system: Micrococcus Luteus
Experimental: as §3, §2

[6] = system: Streptococcus Bovis; conditions: Streptococcus equinus, strain A5169; BHI agar, 20-24 hours
Experimental: as §3, §2

[7] = system: Streptococcus Agalactiae; conditions: strain CMX 508, BHI agar, 20-24 hours
Experimental: as §3, §2

[8] = system: Klebsiella Pneumoniae; conditions: BHI agar, 20-24 hours
Experimental: as §3, §2

[9] = system: Pseudomonas Aeruginosa; conditions: BHI agar, 20-24 hours
Experimental: as §3, §2

[10] = system: Enterobacter Aerogenes; conditions: BHI agar, 20-24 hours
Experimental: as §3, §2

[11] = system: Enterococcus Faecium; conditions: BHI agar, 20-24 hours
Experimental: as §3, §2

[12] = system: Staphylococcus Aureus
Experimental: as §3, §2

[13] = system: Streptococcus Pyogenes
Experimental: as §3, §2

[14] = system: Providencia Stuartii; conditions: strain CMX 640, BHI agar, 20-24 hours
Experimental: as §3, §2

[15] = system: Haemophilus Influenzae; conditions: BHI agar, 20-24 hours
Experimental: as §3, §2

[16] = Haemophilus influenzae, strain 519A, read-out: MIC
[17] = Haemophilus influenzae, strain 751, read-out: MIC
[18] = Haemophilus influenzae, strain 1435, read-out: MIC

## CCC1OC(=O)CC(O)C(C)C(OC2OC(C)CC(N(C)C)C2O)C(CC=O)CC(C)C(N(C)C)CCC2(C)OC2C1C (stereo not drawn) [Example 3, [9S]-9-Deoxo-10,11-dihydro-9-N,N-dimethylamino-rosaramicin]
[1]
  MIC: > 100 µg/mL
[2]; strain DC-2
  MIC: 6.2 µg/mL (≈ 10.1 µM)
[2]; strain SS
  MIC: 0.1 µg/mL (≈ 0.163 µM)
[3]
  MIC: 3.1 µg/mL (≈ 5.06 µM)
[4]
  MIC: 1.56 µg/mL (≈ 2.55 µM)
[5]; Micrococcus luteus, ATCC9341
  MIC: 0.2 µg/mL (≈ 0.326 µM)
[5]; strain ATCC 4698, BHI agar, 20-24 hours
  MIC: 0.39 µg/mL (≈ 0.636 µM)
[6]
  MIC: 0.05 µg/mL (≈ 0.0816 µM)
[7]
  MIC: 0.2 µg/mL (≈ 0.326 µM)
[8]; strain ATCC 8045
  MIC: 6.2 µg/mL (≈ 10.1 µM)
[9]; strain A5007
  MIC: > 100 µg/mL
[9]; strain BMH10
  MIC: 100 µg/mL (≈ 163 µM)
[9]; strain K799/61
  MIC: 0.78 µg/mL (≈ 1.27 µM)
[9]; strain K799/WT
  MIC: 100 µg/mL (≈ 163 µM)
[10]; strain ATCC 13048
  MIC: 12.5 µg/mL (≈ 20.4 µM)
[11]; strain ATCC 8043
  MIC: 0.78 µg/mL (≈ 1.27 µM)
[12]; strain 45, BHI agar, 20-24 hours
  MIC: 0.78 µg/mL (≈ 1.27 µM)
[12]; strain 45 RAR2, BHI agar, 20-24 hours
  MIC: 1.56 µg/mL (≈ 2.55 µM)
[12]; strain 642A, BHI agar, 20-24 hours
  MIC: 1.56 µg/mL (≈ 2.55 µM)
[12]; strain A5177, BHI agar, 20-24 hours
  MIC: 0.78 µg/mL (≈ 1.27 µM)
[12]; strain ATCC 6538P, BHI agar, 20-24 hours
  MIC: 1.56 µg/mL (≈ 2.55 µM)
[12]; strain CMX 553, BHI agar, 20-24 hours
  MIC: 1.56 µg/mL (≈ 2.55 µM)
[12]; strain NCTC 10649, BHI agar, 20-24 hours
  MIC: 0.78 µg/mL (≈ 1.27 µM)
[13]; strain 930 CONST, BHI agar, 20-24 hours
  MIC: > 100 µg/mL
[13]; strain 2548 INDUC, BHI agar, 20-24 hours
  MIC: 0.78 µg/mL (≈ 1.27 µM)
[13]; strain EES61, BHI agar, 20-24 hours
  MIC: 0.1 µg/mL (≈ 0.163 µM)
[14]
  MIC: > 100 µg/mL
[15]; [16]
  MIC: 0.25 µg/mL (≈ 0.408 µM)
[15]; [17]
  MIC: 4 µg/mL (≈ 6.53 µM)
[15]; [18]
  MIC: 0.5 µg/mL (≈ 0.816 µM)
[15]; Haemophilus influenzae, strain DILL AMP R, read-out: MIC
  MIC: 0.5 µg/mL (≈ 0.816 µM)
[15]; strain 503B
  MIC: 0.5 µg/mL (≈ 0.816 µM)
[15]; strain 504
  MIC: 0.5 µg/mL (≈ 0.816 µM)
[15]; strain 566A
  MIC: 1 µg/mL (≈ 1.63 µM)
[15]; strain 588A
  MIC: 1 µg/mL (≈ 1.63 µM)
[15]; strain 632A
  MIC: 1 µg/mL (≈ 1.63 µM)
[15]; strain 667A
  MIC: 0.5 µg/mL (≈ 0.816 µM)
[15]; strain 747C
  MIC: 1 µg/mL (≈ 1.63 µM)
[15]; strain 1177
  MIC: 0.12 µg/mL (≈ 0.196 µM)
[15]; strain ATCC 9795
  MIC: 1 µg/mL (≈ 1.63 µM)
[15]; strain ATCC 10211
  MIC: 0.5 µg/mL (≈ 0.816 µM)
[15]; strain ATCC 19418
  MIC: 1 µg/mL (≈ 1.63 µM)
[15]; strain ATCC 43095
  MIC: 1 µg/mL (≈ 1.63 µM)
[15]; strain SOL AMP R
  MIC: 1 µg/mL (≈ 1.63 µM)
[15]; strain SPK AMP R
  MIC: 0.25 µg/mL (≈ 0.408 µM)

## CCC1OC(=O)CC(O)C(C)C(OC2OC(C)CC(N(C)C)C2O)C(CC=O)CC(C)C(N(C)C)C=CC2(C)OC2C1C (stereo not drawn) [Example 1, [9R]-9-Deoxo-9-N,N-dimethylamino-rosaramicin]
[1]; Burkholderia cepacia, read-out: MIC
  MIC: 100 µg/mL (≈ 164 µM)
[2]; Escherichia coli, strain DC-2, read-out: MIC
  MIC: 3.1 µg/mL (≈ 5.08 µM)
[2]; Escherichia coli, strain H560, read-out: MIC
  MIC: 0.78 µg/mL (≈ 1.28 µM)
[2]; Escherichia coli, strain JUHL, read-out: MIC
  MIC: 6.2 µg/mL (≈ 10.2 µM)
[2]; Escherichia coli, strain KNK 437, read-out: MIC
  MIC: 6.2 µg/mL (≈ 10.2 µM)
[2]; Escherichia coli, strain SS, read-out: MIC
  MIC: 0.1 µg/mL (≈ 0.164 µM)
[3]; Acinetobacter, read-out: MIC
  MIC: 1.56 µg/mL (≈ 2.55 µM)
[4]; Staphylococcus epidermidis, read-out: MIC
  MIC: 0.78 µg/mL (≈ 1.28 µM)
[5]; Micrococcus luteus, ATCC4698, strain ATCC 4698, BHI agar, 20-24 hours, read-out: MIC
  MIC: 0.2 µg/mL (≈ 0.327 µM)
[5]; Micrococcus luteus, ATCC9341
  MIC: 0.1 µg/mL (≈ 0.164 µM)
[6]
  MIC: 0.05 µg/mL (≈ 0.0819 µM)
[7]; Streptococcus agalactiae, read-out: MIC
  MIC: 0.1 µg/mL (≈ 0.164 µM)
[8]; Klebsiella pneumoniae, ATCC8045, strain ATCC 8045, read-out: MIC
  MIC: 12.5 µg/mL (≈ 20.5 µM)
[9]; Pseudomonas aeruginosa, strain A5007, read-out: MIC
  MIC: > 100 µg/mL
[9]; Pseudomonas aeruginosa, strain BMH10, read-out: MIC
  MIC: 50 µg/mL (≈ 81.9 µM)
[9]; Pseudomonas aeruginosa, strain K799/61, read-out: MIC
  MIC: 0.78 µg/mL (≈ 1.28 µM)
[9]; Pseudomonas aeruginosa, strain K799/WT, read-out: MIC
  MIC: 50 µg/mL (≈ 81.9 µM)
[10]; Klebsiella aerogenes, ATCC13048, strain ATCC 13048, read-out: MIC
  MIC: 6.2 µg/mL (≈ 10.2 µM)
[11]; Enterococcus faecium, ATCC8043, strain ATCC 8043, read-out: MIC
  MIC: 0.39 µg/mL (≈ 0.638 µM)
[12]; Staphylococcus aureus, ATCC6538P
  MIC: 0.78 µg/mL (≈ 1.28 µM)
[12]; Staphylococcus aureus, NCTC10649, strain NCTC 10649, BHI agar, 20-24 hours, read-out: MIC
  MIC: 0.78 µg/mL (≈ 1.28 µM)
[12]; Staphylococcus aureus, strain 45, BHI agar, 20-24 hours, read-out: MIC
  MIC: 0.78 µg/mL (≈ 1.28 µM)
[12]; Staphylococcus aureus, strain 45 RAR2, BHI agar, 20-24 hours, read-out: MIC
  MIC: 0.78 µg/mL (≈ 1.28 µM)
[12]; Staphylococcus aureus, strain 642A, BHI agar, 20-24 hours, read-out: MIC
  MIC: 0.78 µg/mL (≈ 1.28 µM)
[12]; Staphylococcus aureus, strain A5177, BHI agar, 20-24 hours, read-out: MIC
  MIC: 1.56 µg/mL (≈ 2.55 µM)
[12]; Staphylococcus aureus, strain CMX 553, BHI agar, 20-24 hours, read-out: MIC
  MIC: 0.78 µg/mL (≈ 1.28 µM)
[13]; Streptococcus pyogenes
  MIC: 0.05 µg/mL (≈ 0.0819 µM)
[13]; Streptococcus pyogenes, strain 930 CONST, BHI agar, 20-24 hours, read-out: MIC
  MIC: > 100 µg/mL
[13]; Streptococcus pyogenes, strain 2548 INDUC, BHI agar, 20-24 hours, read-out: MIC
  MIC: 0.39 µg/mL (≈ 0.638 µM)
[14]; Providencia stuartii, read-out: MIC
  MIC: > 100 µg/mL
[15]; Haemophilus influenzae, ATCC9795, strain ATCC 9795
  MIC: 1 µg/mL (≈ 1.64 µM)
[15]; Haemophilus influenzae, ATCC10211, strain ATCC 10211
  MIC: 1 µg/mL (≈ 1.64 µM)
[15]; Haemophilus influenzae, ATCC19418, strain ATCC 19418
  MIC: 1 µg/mL (≈ 1.64 µM)
[15]; Haemophilus influenzae, ATCC43095, strain ATCC 43095, read-out: MIC
  MIC: 0.25 µg/mL (≈ 0.409 µM)
[15]; Haemophilus influenzae, strain 503B
  MIC: 1 µg/mL (≈ 1.64 µM)
[15]; Haemophilus influenzae, strain 504
  MIC: 1 µg/mL (≈ 1.64 µM)
[15]; [16]
  MIC: 0.5 µg/mL (≈ 0.819 µM)
[15]; Haemophilus influenzae, strain 566A, read-out: MIC
  MIC: 2 µg/mL (≈ 3.27 µM)
[15]; Haemophilus influenzae, strain 588A
  MIC: 1 µg/mL (≈ 1.64 µM)
[15]; Haemophilus influenzae, strain 632A
  MIC: 1 µg/mL (≈ 1.64 µM)
[15]; Haemophilus influenzae, strain 667A
  MIC: 1 µg/mL (≈ 1.64 µM)
[15]; Haemophilus influenzae, strain 747C
  MIC: 1 µg/mL (≈ 1.64 µM)
[15]; [17]
  MIC: 2 µg/mL (≈ 3.27 µM)
[15]; Haemophilus influenzae, strain 1177, read-out: MIC
  MIC: 0.06 µg/mL (≈ 0.0982 µM)
[15]; [18]
  MIC: 0.5 µg/mL (≈ 0.819 µM)
[15]; Haemophilus influenzae, strain DILL AMP R
  MIC: 1 µg/mL (≈ 1.64 µM)
[15]; Haemophilus influenzae, strain SOL AMP R
  MIC: 1 µg/mL (≈ 1.64 µM)
[15]; Haemophilus influenzae, strain SPK AMP R
  MIC: 1 µg/mL (≈ 1.64 µM)
